Measurements from US10398671B2, “Fatty acid formulations and methods of use thereof” (Children's Hospital & Research Center at Oakland, priority 2007, dated 2019).

Assays:
global apraxia/dyspraxia = experiment: Case study Patient A: clinical observation of speech, coordination, tone and sensory symptoms; format: in vivo, human; conditions: for speech clarity and energy level/stamina: coenzyme Q 100 mg/day, vitamin C 250 mg/day and alpha-lipoic acid 300 mg/day added together to regimen, within 1 week
Description: They were placed on omega 3/6/9 fatty acid therapy.
In addition Vitamin K (to prevent adverse effect of vitamin K antagonism by high dose vitamin E), a complete multi-vitamin combination (with selenium, zinc and high B-complex and additional fat soluble vitamins) was also added to the daily regimen.

[1] = Plasma alpha-d-tocopherol level, Patient A; format: in vivo, human; conditions: despite high dose supplementation
Description: The vit E dose was increased over several weeks and is now in the range recommended for neurological complications of vit E deficiency (100-200 mg/kg/day alpha-d-tocopherol). Sokol et al. Gastroenterology 1993; 104(6):1727-35. […] All speech therapy and occupational therapy has been phased out due to this rapid and remarkable improvement within 5 months of beginning therapy, at which point it was felt by all evaluators to no longer be necessary.

[2] = cited from earlier work

O=C1O[C@H]([C@@H](O)CO)C(O)=C1O [vitamin C, ascorbic acid]
speech clarity and energy level/stamina (global apraxia/dyspraxia): increased clarity of speech and improved energy level/stamina

Cc1c(C)c2c(c(C)c1O)CC[C@@](C)(CCC[C@H](C)CCC[C@H](C)CCCC(C)C)O2 [alpha-d-tocopherol]
change of plasma levels of alpha-d-tocopherol [1]: did not change

Polyenylphosphatidylcholine
stearrhea (fat absorption) (global apraxia/dyspraxia; 3 grams/day, within a week of supplementation): decreased in stearrhea

O=C(O)CCCCC1CCSS1 (stereo not drawn) [lipoic acid, α-lipoic acid]
pKa [2]: 4.7
speech clarity and energy level/stamina (global apraxia/dyspraxia): increased clarity of speech and improved energy level/stamina

COC1=C(OC)C(=O)C(C/C=C(\C)CC/C=C(\C)CC/C=C(\C)CC/C=C(\C)CC/C=C(\C)CC/C=C(\C)CC/C=C(\C)CC/C=C(\C)CC/C=C(\C)CCC=C(C)C)=C(C)C1=O [coenzyme Q, 2,3-dimethoxy-5-methyl-6-polyprenyl-1,4-benzoquinone]
speech clarity and energy level/stamina (global apraxia/dyspraxia): increased clarity of speech and improved energy level/stamina

C[C@]12C=CC(=O)C=C1CC[C@@H]1[C@@H]2C(=O)C[C@@]2(C)[C@H]1CC[C@]2(O)C(=O)CO [prednisone]
speech, coordination and behavior (global apraxia/dyspraxia; oral, used for allergic reactions and asthma exacerbations triggered by food allergy): improvement in speech, coordination and behavior

C[C@@H]1[C@H](O)[C@@H](C)/C=C/C=C/CC/C=C/C=C/C=C/C=C/C(O[C@H]2O[C@H](C)[C@@H](O)[C@H](N)[C@@H]2O)CC2O[C@](O)(CC(O)C(O)CCC(O)CC(O)CC(O)CC(=O)O[C@H]1C)CC(O)C2C(=O)O (some centres unmarked) [nystatin]
neurologic benefits (global apraxia/dyspraxia): Further neurologic benefits
